Data on 22 molecules can be found in PubChem BioAssay AID264 (DTP/NCI, 2004).

The test has as its system nude mice, LX-1 lung xenograft intrarenal, tumor weight T/C. As to the kind of experiment: NCI In Vivo Anticancer Drug Screen. Data for tumor model Human Lung LX-1 Xenograft (intrarenal inoculation) in NU/NU Swiss (nude) mice. The conditions noted are these: endpoint: mean tumor weight change, higher = larger tumour. In a few lines:
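Antitumor effect is expressed as a ratio: the mean tumor measurement of the drug-treated group relative to that of the vehicle-dosed control group.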
Background: In xenograft studies the graft and the host belong to different species.

The mark [1] stands for this setting: dose: 100.0 mg/kg/injection, schedule: Q01DX010 (sc), vehicle: water.
Where [2] appears, read: dose: 200.0 mg/kg/injection, schedule: Q01DX010 (sc), vehicle: water.
The mark [3] stands for this setting: dose: 75.0 mg/kg/injection, schedule: Q04DX003 (sc), vehicle: saline.
The mark [4] stands for this setting: dose: 150.0 mg/kg/injection, schedule: Q04DX003 (sc), vehicle: saline.
Where [5] appears, read: dose: 37.5 mg/kg/injection, schedule: Q04DX003 (sc), vehicle: saline.
[6] abbreviates: dose: 25.0 mg/kg/injection, schedule: Q01DX010 (sc), vehicle: water.
Where [7] appears, read: dose: 150.0 mg/kg/injection, schedule: Q04DX003 (sc), vehicle: Klucel (hydroxypropylcellulose) (HPC).
[8] abbreviates: dose: 300.0 mg/kg/injection, schedule: Q04DX003 (sc), vehicle: Klucel (hydroxypropylcellulose) (HPC).
Setting [9] is: dose: 600.0 mg/kg/injection, schedule: Q04DX003 (sc), vehicle: Klucel (hydroxypropylcellulose) (HPC).
Setting [10] is: dose: 50.0 mg/kg/injection, schedule: Q01DX010 (sc), vehicle: saline with Tween-80.
[11] abbreviates: dose: 200.0 mg/kg/injection, schedule: Q01DX010 (sc), vehicle: saline with Tween-80.
[12] abbreviates: dose: 400.0 mg/kg/injection, schedule: Q01DX010 (sc), vehicle: saline with Tween-80.

Several values for one entry are separate records, joined by “and”; a condition that tells them apart may be missing. Equal values may be shown once. Inconclusive results are not listed.

In the case of `O=C1C=CN(C2OC(CO)C(O)C2O)C(=O)C1` (centres undefined), the T/C runs as follows: (dose: 50.0 mg/kg/injection, schedule: Q01DX010 (sc), vehicle: saline) 65 % of control; (dose: 100.0 mg/kg/injection, schedule: Q01DX010 (sc), vehicle: saline) 21 % of control.
For the molecule `O=C(O)c1c2c(nc3ccccc13)Cc1ccccc1-2`, the T/C is, setting by setting: under setting [1], 39 % of control; under setting [2], 33 % of control.
On to `N=C(N)Sc1cc(O)ccc1O`, for which the T/C was 91 % of control under setting [3] and 164 % of control under setting [4].
As for `O=C(O)C(O)C(O)C1[O][Sb][O]C1C(=O)O` (centres undefined), the T/C runs as follows: under setting [5], 106 % of control; under setting [3], 105 % of control.
Turning to `COc1cccc2c1C(=O)c1c(O)c3c(c(O)c1C2=O)C[C@@](O)(C(C)=O)C[C@@H]3OC1CC(N(Cc2ccccc2)Cc2ccccc2)C(O)C(C)O1` (some centres undefined), the T/C under setting [6] is 64 % of control.
As to `COc1cccc2c1C(=O)c1c(O)c3c(c(O)c1C2=O)C[C@@](O)(/C(C)=N\O)C[C@@H]3OC1CC(N)C(O)C(C)O1` (some centres undefined), the T/C was 95 % of control (dose: 25.0 mg/kg/injection, schedule: Q04DX003 (sc), vehicle: saline) and 76 % of control (dose: 50.0 mg/kg/injection, schedule: Q04DX003 (sc), vehicle: saline).
Take `OC(CCl)CN1CC[N+]2(CC1)CC[N+]1(CCN(CC(O)CCl)CC1)CC2` (centres undefined): the T/C is 78 % of control (dose: 128.0 mg/kg/injection, schedule: Q01DX010 (sc), vehicle: water) and 59 % of control (dose: 256.0 mg/kg/injection, schedule: Q01DX010 (sc), vehicle: water).
As for `C[n+]1c(/C=C\C=C\N2CCCCC2)sc2ccccc21`, the T/C is 52 % of control (dose: 1.5 mg/kg/injection, schedule: Q04DX003 (sc), vehicle: Klucel (hydroxypropylcellulose) (HPC)) and 83 % of control (dose: 3.0 mg/kg/injection, schedule: Q04DX003 (sc), vehicle: Klucel (hydroxypropylcellulose) (HPC)).
Consider `COc1cccc2c1C(=O)c1c(O)c3c(c(O)c1C2=O)CC(O)(C(=O)CO)CC3OC1CC(N)C(O)C(C)O1` (centres undefined), for which the T/C by setting is: (dose: 12.0 mg/kg/injection, schedule: Q01DX010 (sc), vehicle: saline) 71 % of control; (dose: 24.0 mg/kg/injection, schedule: Q01DX010 (sc), vehicle: saline) 24 % of control; under setting [6], 71 % of control; (dose: 37.5 mg/kg/injection, schedule: Q04DX003 (sc), vehicle: water) 82 % of control; (dose: 48.0 mg/kg/injection, schedule: Q01DX010 (sc), vehicle: saline) 31 % of control; (dose: 50.0 mg/kg/injection, schedule: Q01DX010 (sc), vehicle: water) 71 % of control. The T/C (dose: 75.0 mg/kg/injection, schedule: Q04DX003 (sc), vehicle: water) is 105 % of control; the T/C under setting [1] is 39 % of control; the T/C (dose: 150.0 mg/kg/injection, schedule: Q04DX003 (sc), vehicle: water) was 193 % of control; the T/C under setting [2] was 11 % of control; the T/C (dose: 300.0 mg/kg/injection, schedule: Q04DX003 (sc), vehicle: water) is 46 % of control.
In the case of `CN(C)CCN1C(=O)c2cccc3cc([N+](=O)[O-])cc(c23)C1=O`, the T/C runs as follows: (dose: 9.0 mg/kg/injection, schedule: Q04DX003 (sc), vehicle: saline with Tween-80) 94 % of control; (dose: 18.0 mg/kg/injection, schedule: Q04DX003 (sc), vehicle: saline with Tween-80) 108 % of control; (dose: 36.0 mg/kg/injection, schedule: Q04DX003 (sc), vehicle: saline with Tween-80) 95 % of control.
As for `CC1CCC(NC(=O)N(CCCl)N=O)CC1` (centres undefined), the T/C runs as follows: (dose: 6.25 mg/kg/injection, schedule: Q01DX010 (sc), vehicle: Klucel (hydroxypropylcellulose) (HPC)) 34 % of control; (dose: 12.5 mg/kg/injection, schedule: Q01DX010 (sc), vehicle: Klucel (hydroxypropylcellulose) (HPC)) 5 % of control.
For the molecule `CCNC(=O)[B-][N+](C)(C)C`, the T/C is 108 % of control (dose: 100.0 mg/kg/injection, schedule: Q04DX003 (sc), vehicle: Klucel (hydroxypropylcellulose) (HPC)); 73 % of control (dose: 200.0 mg/kg/injection, schedule: Q04DX003 (sc), vehicle: Klucel (hydroxypropylcellulose) (HPC)); 48 % of control (dose: 400.0 mg/kg/injection, schedule: Q04DX003 (sc), vehicle: Klucel (hydroxypropylcellulose) (HPC)).
Regarding `Cc1ccc(NCCN(C)C)c2c(=O)c3cc(O)ccc3sc12`, the T/C (dose: 75.0 mg/kg/injection, schedule: Q04DX003 (sc), vehicle: Klucel (hydroxypropylcellulose) (HPC)) was 97 % of control; the T/C under setting [7] is 68 % of control; the T/C under setting [8] was 72 % of control; the T/C under setting [9] is 84 % of control.
On to `[CH3][Sn]([CH3])([Cl])[S]CCN`, for which the T/C is, setting by setting: (dose: 18.75 mg/kg/injection, schedule: Q04DX003 (sc), vehicle: saline) 62 % of control; under setting [5], 95 % of control; under setting [3], 82 % of control.
As to `O=C1N[C@@H]([C@H]2CC[C@H](Cl)CN2)C(=O)N[C@H]1[C@H]1CC[C@H](Cl)CN1`, the T/C is 124 % of control (dose: 0.63 mg/kg/injection, schedule: Q01DX010 (sc), vehicle: water); 98 % of control (dose: 1.25 mg/kg/injection, schedule: Q01DX010 (sc), vehicle: water); 22 % of control (dose: 5.0 mg/kg/injection, schedule: Q01DX010 (sc), vehicle: water); 70 % of control (dose: 5.0 mg/kg/injection, schedule: Q04DX003 (sc), vehicle: water); 58 % of control (dose: 10.0 mg/kg/injection, schedule: Q04DX003 (sc), vehicle: water).
Consider `CC[C@H](CC[C@@H](C)C1CC[C@H]2[C@@H]3CC=C4C[C@@H](OP(=O)(N5CC5)N5CC5)CC[C@]4(C)[C@H]3CC[C@]12C)C(C)C` (some centres undefined), for which the T/C is 57 % of control (dose: 300.0 mg/kg/injection, schedule: Q04DX003 (sc), vehicle: saline with Tween-80); 78 % of control (dose: 600.0 mg/kg/injection, schedule: Q04DX003 (sc), vehicle: saline with Tween-80); 83 % of control (dose: 1200.0 mg/kg/injection, schedule: Q04DX003 (sc), vehicle: saline with Tween-80); 80 % of control (dose: 2400.0 mg/kg/injection, schedule: Q04DX003 (sc), vehicle: saline with Tween-80).
With `Nc1nc(N)c2c(ccc3c2ccn3Cc2cccc([N+](=O)[O-])c2)n1`, the T/C (dose: 37.5 mg/kg/injection, schedule: Q04DX003 (sc), vehicle: saline with Tween-80) was 100 % of control; the T/C (dose: 75.0 mg/kg/injection, schedule: Q04DX003 (sc), vehicle: saline with Tween-80) was 69 % of control; the T/C (dose: 150.0 mg/kg/injection, schedule: Q04DX003 (sc), vehicle: saline with Tween-80) was 50 % of control.
For `O=CN(SSN(C=O)C1CCCCC1)C1CCCCC1`, the T/C under setting [10] is 395 % of control; the T/C (dose: 100.0 mg/kg/injection, schedule: Q01DX010 (sc), vehicle: saline with Tween-80) was 104 % of control; the T/C under setting [11] is 234 % of control; the T/C under setting [12] is 97 % of control and 122 % of control; the T/C (dose: 800.0 mg/kg/injection, schedule: Q01DX010 (sc), vehicle: saline with Tween-80) is 48 % of control; the T/C (dose: 1600.0 mg/kg/injection, schedule: Q01DX010 (sc), vehicle: saline with Tween-80) is 54 % of control.
Take `COc1cc(C(=O)c2cc3c(cc2C)OCO3)cc(OC)c1OC`: the T/C is 78 % of control under setting [7]; 71 % of control under setting [8]; 80 % of control under setting [9]; 82 % of control (dose: 1200.0 mg/kg/injection, schedule: Q04DX003 (sc), vehicle: Klucel (hydroxypropylcellulose) (HPC)).
`O=C1N(Cl)C(=O)C(c2ccc(Cl)cc2)(c2ccc(Cl)cc2)N1Cl`: the T/C under setting [10] was 98 % of control, the T/C under setting [11] was 57 % of control and the T/C under setting [12] is 118 % of control.
Turning to `COC1OC(CO)C(O)C(NC(=O)N(C)N=O)C1O` (centres undefined), the T/C was 31 % of control (dose: 800.0 mg/kg/injection, schedule: Q04DX003 (sc), vehicle: saline) and -100 % of control (dose: 900.0 mg/kg/injection, schedule: Q04DX003 (sc), vehicle: saline).
With `COC(=O)c1ccoc1`, the T/C under setting [4] is 107 % of control.
